The results in this text go back to PMC5218480 (PLoS ONE, 2017).

The assay relates to MV-4-11 cells. As to the kind of experiment: Gene expression microarray analysis (Affymetrix PrimeView) and GSEA. It counts as cell-based, human. Set-up: RFU PODN (11730768_x_at) / Fold change /veh PODN (11730768_x_at) / RFU LINC00158 (11744669_a_at) / Fold change /veh LINC00158 (11744669_a_at) / RFU DUSP10 (11751237_a_at) / Fold change /veh DUSP10 (11751237_a_at) / RFU ID3 (11757404_x_at) / Fold change /veh ID3 (11757404_x_at) / RFU PLEKHG5 (11737974_s_at) / Fold change /veh PLEKHG5 (11737974_s_at) / RFU LRRC4B (11730491_at) / Fold change /veh LRRC4B (11730491_at) / RFU GIMAP4 (11747438_a_at) / Fold change /veh GIMAP4 (11747438_a_at) / RFU KRT8 (11758183_x_at) / Fold change /veh KRT8 (11758183_x_at) / RFU CNN1 (11734310_a_at) / Fold change /veh CNN1 (11734310_a_at) / RFU VPS37D (11726825_at) / Fold change /veh VPS37D (11726825_at) / RFU C10orf10 (11716522_x_at) / Fold change /veh C10orf10 (11716522_x_at) / RFU KIR2DL2 /// KIR2DL4 /// KIR2DL5A /// KIR2DL5B /// KIR2DS1 /// KIR2DS2 /// KIR2DS3 /// KIR2DS4 /// KIR3DL3 /// KIR3DL3 /// KIR3DS1 (11738374_at) / Fold change /veh KIR2DL2 /// KIR2DL4 /// KIR2DL5A /// KIR2DL5B /// KIR2DS1 /// KIR2DS2 /// KIR2DS3 /// KIR2DS4 /// KIR3DL3 /// KIR3DL3 /// KIR3DS1 (11738374_at) / RFU C1QL1 (11718748_at) / Fold change /veh C1QL1 (11718748_at) / RFU TMPRSS4 (11747572_a_at) / Fold change /veh TMPRSS4 (11747572_a_at) / RFU HAMP (11756126_x_at) / Fold change /veh HAMP (11756126_x_at) / RFU RNFT2 (11725882_a_at) / Fold change /veh RNFT2 (11725882_a_at) / RFU NR4A2 (11747474_a_at) / Fold change /veh NR4A2 (11747474_a_at) / RFU ABCC12 (11746883_a_at) / Fold change /veh ABCC12 (11746883_a_at) / RFU TMEM136 (11760407_x_at) / Fold change /veh TMEM136 (11760407_x_at) / RFU CLDN22 /// WWC2 (11732394_at) / Fold change /veh CLDN22 /// WWC2 (11732394_at) / RFU HLA-DPB1 (11760878_x_at) / Fold change /veh HLA-DPB1 (11760878_x_at) / RFU SPINT1 (11716480_a_at) / Fold change /veh SPINT1 (11716480_a_at) / RFU GAP43 (11754022_s_at) / Fold change /veh GAP43 (11754022_s_at) / RFU A4GNT (11735810_at) / Fold change /veh A4GNT (11735810_at) / RFU PRB3 (11715151_x_at) / Fold change /veh PRB3 (11715151_x_at) / RFU TUBB4B (11761932_at) / Fold change /veh TUBB4B (11761932_at) / RFU CAPN14 (11732068_a_at) / Fold change /veh CAPN14 (11732068_a_at) / RFU TMCC2 (11721928_a_at) / Fold change /veh TMCC2 (11721928_a_at) / RFU IRGQ (11745062_a_at) / Fold change /veh IRGQ (11745062_a_at) / RFU FAM174B (11720279_a_at) / Fold change /veh FAM174B (11720279_a_at) / RFU TMPRSS4 (11748680_a_at) / Fold change /veh TMPRSS4 (11748680_a_at) / RFU FAM212B (11763350_a_at) / Fold change /veh FAM212B (11763350_a_at) / RFU PLEKHG5 (11743358_a_at) / Fold change /veh PLEKHG5 (11743358_a_at) / RFU ZSCAN30 (11745921_a_at) / Fold change /veh ZSCAN30 (11745921_a_at) / RFU CMKLR1 (11741424_a_at) / Fold change /veh CMKLR1 (11741424_a_at) / RFU LOC101060620 /// MAPK8IP1 (11723275_at) / Fold change /veh LOC101060620 /// MAPK8IP1 (11723275_at) / RFU SPTSSB (11747773_x_at) / Fold change /veh SPTSSB (11747773_x_at) / RFU PRSS12 (11739890_at) / Fold change /veh PRSS12 (11739890_at) / RFU BIN1 (11741810_x_at) / Fold change /veh BIN1 (11741810_x_at) / RFU WNT11 (11732464_a_at) / Fold change /veh WNT11 (11732464_a_at) / RFU C10orf10 (11716521_a_at) / Fold change /veh C10orf10 (11716521_a_at) / RFU C5orf56 (11738089_at) / Fold change /veh C5orf56 (11738089_at) / RFU CYB561 (11721691_x_at) / Fold change /veh CYB561 (11721691_x_at) / RFU ANKRD19P (11752326_a_at) / Fold change /veh ANKRD19P (11752326_a_at) / RFU OR2T12 /// OR2T33 /// OR2T8 (11738714_s_at) / Fold change /veh OR2T12 /// OR2T33 /// OR2T8 (11738714_s_at) / RFU VCAN (11748164_a_at) / Fold change /veh VCAN (11748164_a_at) / RFU JSRP1 (11732532_at) / Fold change /veh JSRP1 (11732532_at) / RFU KRTAP10-11 (11738290_x_at) / Fold change /veh KRTAP10-11 (11738290_x_at) / RFU MYO3A (11730013_a_at) / Fold change /veh MYO3A (11730013_a_at) / RFU EBF3 (11725865_a_at) / Fold change /veh EBF3 (11725865_a_at) / RFU CAMK2N1 (11719241_x_at) / Fold change /veh CAMK2N1 (11719241_x_at) / RFU C5orf56 (11738088_a_at) / Fold change /veh C5orf56 (11738088_a_at) / RFU OLFML3 (11715873_a_at) / Fold change /veh OLFML3 (11715873_a_at) / RFU LOC100653217 /// NTM (11731650_a_at) / Fold change /veh LOC100653217 /// NTM (11731650_a_at) / RFU MAPK11 (11762145_a_at) / Fold change /veh MAPK11 (11762145_a_at) / RFU FIZ1 (11724087_x_at) / Fold change /veh FIZ1 (11724087_x_at) / RFU OASL (11726364_x_at) / Fold change /veh OASL (11726364_x_at) / RFU SOX15 (11748057_x_at) / Fold change /veh SOX15 (11748057_x_at) / RFU CD79A (11719716_a_at) / Fold change /veh CD79A (11719716_a_at) / RFU HIST1H1D (11736915_at) / Fold change /veh HIST1H1D (11736915_at) / RFU CASKIN2 (11723855_a_at) / Fold change /veh CASKIN2 (11723855_a_at) / RFU LOC730098 (11760151_x_at) / Fold change /veh LOC730098 (11760151_x_at) / RFU OR4N2 (11742367_at) / Fold change /veh OR4N2 (11742367_at) / RFU PRRT2 (11749266_a_at) / Fold change /veh PRRT2 (11749266_a_at) / RFU SNX32 (11753110_a_at) / Fold change /veh SNX32 (11753110_a_at) / RFU CDHR5 (11726645_a_at) / Fold change /veh CDHR5 (11726645_a_at) / RFU RCAN1 (11760418_a_at) / Fold change /veh RCAN1 (11760418_a_at) / RFU FAM167A (11723789_a_at) / Fold change /veh FAM167A (11723789_a_at) / RFU FAM26E (11764081_at) / Fold change /veh FAM26E (11764081_at) / RFU ISYNA1 (11749810_s_at) / Fold change /veh ISYNA1 (11749810_s_at) / RFU ACY1 (11761880_at) / Fold change /veh ACY1 (11761880_at) / RFU 11764098_at / Fold change /veh 11764098_at / RFU SAMD14 (11745864_x_at) / Fold change /veh SAMD14 (11745864_x_at) / RFU NPB (11741838_a_at) / Fold change /veh NPB (11741838_a_at) / RFU TMPRSS6 (11731388_a_at) / Fold change /veh TMPRSS6 (11731388_a_at) / RFU KRTAP10-2 (11738614_at) / Fold change /veh KRTAP10-2 (11738614_at) / RFU ARHGAP8 /// PRR5-ARHGAP8 (11727945_x_at) / Fold change /veh ARHGAP8 /// PRR5-ARHGAP8 (11727945_x_at) / RFU KRTAP5-7 /// NADSYN1 (11734609_at) / Fold change /veh KRTAP5-7 /// NADSYN1 (11734609_at) / RFU RASL12 (11751679_a_at) / Fold change /veh RASL12 (11751679_a_at) / RFU CDKN2B (11736163_a_at) / Fold change /veh CDKN2B (11736163_a_at) / RFU PRF1 (11729649_at) / Fold change /veh PRF1 (11729649_at) / RFU, ZNF638 /// ZNF638-IT1 / Fold change vs veh, ZNF638 /// ZNF638-IT1 / RFU, PANK3 / Fold change vs veh, PANK3 / RFU, SH3YL1 / Fold change vs veh, SH3YL1 / RFU, ZEB2 / Fold change vs veh, ZEB2 / RFU, NRIP1 / Fold change vs veh, NRIP1 / RFU, PTTG1IP / Fold change vs veh, PTTG1IP / RFU, CAPN2 / Fold change vs veh, CAPN2 / RFU, MED14 / Fold change vs veh, MED14 / RFU, SNORA58 / Fold change vs veh, SNORA58 / RFU, C1orf63 / Fold change vs veh, C1orf63 / RFU, LRRFIP1 / Fold change vs veh, LRRFIP1 / RFU, NDUFAF7 / Fold change vs veh, NDUFAF7 / RFU, SLC12A2 / Fold change vs veh, SLC12A2 / RFU, IBTK / Fold change vs veh, IBTK / RFU, ESF1 / Fold change vs veh, ESF1 / Fold change vs veh, TMEM50B / RFU, TAOK1 / Fold change vs veh, TAOK1 / RFU, ACBD3 / Fold change vs veh, ACBD3 / RFU, TMA16 / Fold change vs veh, TMA16 / RFU, RWDD3 / Fold change vs veh, RWDD3 / RFU, BCAT1 / Fold change vs veh, BCAT1 / RFU, EDEM3 / Fold change vs veh, EDEM3 / RFU, TMEM33 / Fold change vs veh, TMEM33 / RFU, WDR75 / Fold change vs veh, WDR75 / RFU, AHCTF1 / Fold change vs veh, AHCTF1 / RFU, TFRC / Fold change vs veh, TFRC / RFU, ZDHHC17 / Fold change vs veh, ZDHHC17 / RFU, NOM1 / Fold change vs veh, NOM1 / RFU, ARL8B / Fold change vs veh, ARL8B / RFU, ZBTB11 / Fold change vs veh, ZBTB11 / RFU, TAMM41 / Fold change vs veh, TAMM41 / RFU, KIAA1704 /// LOC100996395 / Fold change vs veh, KIAA1704 /// LOC100996395 / RFU, ING1 / Fold change vs veh, ING1 / RFU, TRMT61B / Fold change vs veh, TRMT61B / RFU, FUBP3 / Fold change vs veh, FUBP3 / RFU, TP53 / Fold change vs veh, TP53 / RFU, TNKS2 / Fold change vs veh, TNKS2 / RFU, ZFP14 / Fold change vs veh, ZFP14 / RFU, ACTR2 / Fold change vs veh, ACTR2 / RFU, PPP3R1 / Fold change vs veh, PPP3R1 / RFU, PIK3R1 / Fold change vs veh, PIK3R1 / RFU, HNRNPA1 / Fold change vs veh, HNRNPA1 / RFU, RNF170 / Fold change vs veh, RNF170 / RFU, ZNF28 / Fold change vs veh, ZNF28 / RFU, RNGTT / Fold change vs veh, RNGTT / RFU, OGT / Fold change vs veh, OGT / RFU, BRD1 / Fold change vs veh, BRD1 / RFU, MARS / Fold change vs veh, MARS / RFU, ZNF655 / Fold change vs veh, ZNF655 / RFU, FAHD1 / Fold change vs veh, FAHD1 / RFU, BDP1 / Fold change vs veh, BDP1 / RFU, LRRCC1 / Fold change vs veh, LRRCC1 / RFU, ARID1A / Fold change vs veh, ARID1A / RFU, ZNF146 / Fold change vs veh, ZNF146 / RFU, ZNF330 / Fold change vs veh, ZNF330 / RFU, GPN3 / Fold change vs veh, GPN3 / RFU, C9orf123 / Fold change vs veh, C9orf123 / RFU, N4BP2L2 / Fold change vs veh, N4BP2L2 / RFU, ARFIP1 / Fold change vs veh, ARFIP1 / RFU, FAM179B / Fold change vs veh, FAM179B / RFU, BCL10 / Fold change vs veh, BCL10 / RFU, UHRF1BP1L / Fold change vs veh, UHRF1BP1L / RFU, BET1 / Fold change vs veh, BET1 / RFU, CNOT2 / Fold change vs veh, CNOT2 / RFU, ZNF268 / Fold change vs veh, ZNF268 / Fold change vs veh, ZNF507 / RFU, DGCR2 / Fold change vs veh, DGCR2 / RFU, WDSUB1 / Fold change vs veh, WDSUB1 / Fold change vs veh, HSP90B1 /// MIR3652 / RFU, ADSS / Fold change vs veh, ADSS / RFU, GK / Fold change vs veh, GK / RFU, ZNF148 / Fold change vs veh, ZNF148 / RFU, TAF9 / Fold change vs veh, TAF9 / RFU, SLC1A5 / Fold change vs veh, SLC1A5 / RFU, SLMO2 / Fold change vs veh, SLMO2 / RFU, ABCC4 / Fold change vs veh, ABCC4 / RFU, LOC101060439 /// RAP1B / Fold change vs veh, LOC101060439 /// RAP1B / RFU, RFX7 / Fold change vs veh, RFX7 / RFU, GTPBP10 / Fold change vs veh, GTPBP10 / RFU, CNEP1R1 / Fold change vs veh, CNEP1R1 / RFU, BIVM-ERCC5 /// ERCC5 / Fold change vs veh, BIVM-ERCC5 /// ERCC5 / RFU, ILF3 / Fold change vs veh, ILF3 / RFU 11762660_at / Fold change /veh 11762660_at / RFU VCAN (11757783_s_at) / Fold change /veh VCAN (11757783_s_at) / RFU DDX43 (11728927_at) / Fold change /veh DDX43 (11728927_at) / RFU KRT8 (11758188_x_at) / Fold change /veh KRT8 (11758188_x_at) / RFU NKD1 (11759106_at) / Fold change /veh NKD1 (11759106_at) / RFU SRD5A1 (11742802_a_at) / Fold change /veh SRD5A1 (11742802_a_at) / RFU TPSAB1 /// TPSB2 (11721975_s_at) / Fold change /veh TPSAB1 /// TPSB2 (11721975_s_at) / RFU GSTM3 (11746129_a_at) / Fold change /veh GSTM3 (11746129_a_at) / RFU IL23R (11737362_x_at) / Fold change /veh IL23R (11737362_x_at) / RFU TMEM51 (11727254_a_at) / Fold change /veh TMEM51 (11727254_a_at) / RFU PIWIL2 (11732686_x_at) / Fold change /veh PIWIL2 (11732686_x_at) / RFU ORM1 (11744905_x_at) / Fold change /veh ORM1 (11744905_x_at) / RFU CCDC152 (11743942_at) / Fold change /veh CCDC152 (11743942_at) / RFU ECM1 (11717891_a_at) / Fold change /veh ECM1 (11717891_a_at) / RFU IL23R (11748794_a_at) / Fold change /veh IL23R (11748794_a_at) / RFU TNFAIP8L3 (11732012_x_at) / Fold change /veh TNFAIP8L3 (11732012_x_at) / RFU MBOAT4 (11741988_at) / Fold change /veh MBOAT4 (11741988_at) / RFU 11764193_at / Fold change /veh 11764193_at / RFU TMEM53 (11763286_at) / Fold change /veh TMEM53 (11763286_at) / RFU MAGEB2 (11727129_at) / Fold change /veh MAGEB2 (11727129_at) / RFU TMEM200A (11744735_a_at) / Fold change /veh TMEM200A (11744735_a_at) / RFU CCDC152 (11751479_a_at) / Fold change /veh CCDC152 (11751479_a_at) / RFU FAM211A (11726209_a_at) / Fold change /veh FAM211A (11726209_a_at) / RFU RGS16 (11746705_a_at) / Fold change /veh RGS16 (11746705_a_at) / RFU VCAN (11755009_s_at) / Fold change /veh VCAN (11755009_s_at) / RFU RHOB (11743442_s_at) / Fold change /veh RHOB (11743442_s_at) / RFU RGS16 (11720943_a_at) / Fold change /veh RGS16 (11720943_a_at) / RFU RGS16 (11720944_at) / Fold change /veh RGS16 (11720944_at) / RFU, VPS4B / Fold change vs veh, VPS4B / RFU, CREB1 / Fold change vs veh, CREB1 / RFU, DNAJC13 / Fold change vs veh, DNAJC13 / RFU, GNAQ / Fold change vs veh, GNAQ / RFU, CDK5R1 / Fold change vs veh, CDK5R1 / RFU, ZRANB3 / Fold change vs veh, ZRANB3 / RFU, CUL4A / Fold change vs veh, CUL4A / RFU, CCNY / Fold change vs veh, CCNY / RFU, UFL1 / Fold change vs veh, UFL1 / RFU, COG3 / Fold change vs veh, COG3 / RFU, DIAPH2 / Fold change vs veh, DIAPH2 / RFU, SKA2 / Fold change vs veh, SKA2 / RFU, AFF3 / Fold change vs veh, AFF3 / RFU, LMF1 / Fold change vs veh, LMF1 / RFU, IPO11 / Fold change vs veh, IPO11 / RFU, DFFB / Fold change vs veh, DFFB / RFU, FOXP1 / Fold change vs veh, FOXP1 / RFU, CARD8 / Fold change vs veh, CARD8 / RFU, STRN3 / Fold change vs veh, STRN3 / RFU, ADK / Fold change vs veh, ADK / RFU, RASSF2 / Fold change vs veh, RASSF2 / RFU, WIPF1 / Fold change vs veh, WIPF1 / RFU, LARP1B / Fold change vs veh, LARP1B / RFU, RASA1 / Fold change vs veh, RASA1 / RFU, RB1 / Fold change vs veh, RB1 / RFU, PPFIA1 / Fold change vs veh, PPFIA1 / RFU, MAT2A / Fold change vs veh, MAT2A / RFU, CCT5 / Fold change vs veh, CCT5 / RFU, WDR92 / Fold change vs veh, WDR92 / RFU, CUX1 / Fold change vs veh, CUX1 / RFU, TTC7A / Fold change vs veh, TTC7A / RFU, TMEM135 / Fold change vs veh, TMEM135 / RFU, DEPTOR / Fold change vs veh, DEPTOR / RFU, CPM / Fold change vs veh, CPM / RFU, DNAJB6 / Fold change vs veh, DNAJB6 / RFU, CACNA2D3 / Fold change vs veh, CACNA2D3 / RFU, DTX4 / Fold change vs veh, DTX4 / RFU, TFCP2 / Fold change vs veh, TFCP2 / RFU, GMCL1 /// GMCL1P1 / Fold change vs veh, GMCL1 /// GMCL1P1 / RFU, AEBP2 / Fold change vs veh, AEBP2 / RFU, SNHG1 /// SNORD22 /// SNORD25 /// SNORD26 /// SNORD27 /// SNORD28 /// SNORD29 /// SNORD31 / Fold change vs veh, SNHG1 /// SNORD22 /// SNORD25 /// SNORD26 /// SNORD27 /// SNORD28 /// SNORD29 /// SNORD31 / Fold change (Aza/veh), C12orf56 (ProbeSet 11735607_a_at) / Fold change (ACY-1035/veh), C12orf56 (ProbeSet 11735607_a_at) / Fold change (Aza/veh), FGFR1OP (ProbeSet 11751329_s_at) / Fold change (ACY-1035/veh), FGFR1OP (ProbeSet 11751329_s_at) / Fold change (Aza/veh), VPS36 (ProbeSet 11739960_a_at) / Fold change (ACY-1035/veh), VPS36 (ProbeSet 11739960_a_at) / RFU SYPL1 (11715823_x_at) / Fold change /veh SYPL1 (11715823_x_at) / RFU IGFBP7 (11715501_s_at) / Fold change /veh IGFBP7 (11715501_s_at) / RFU REEP3 (11722064_at) / Fold change /veh REEP3 (11722064_at) / RFU IGLL1 (11728026_x_at) / Fold change /veh IGLL1 (11728026_x_at): dose or concentration left out as unconfirmed. To be noted: ProbeSet 11727958_a_at; LIST B.

Turning to `Nc1ncn([C@@H]2O[C@H](CO)[C@@H](O)[C@H]2O)c(=O)n1` [azacitidine], the “RFU, ING1” value amounted to 72.09 RFU.
